Reference: EP3409278B1, “HETEROCYCLIC PROTEIN KINASE INHIBITORS” (Tolero Pharmaceuticals, Inc., priority 2011, dated 2013)

System: MOLM-13
Assay: In vitro viability assay, MOLM-13
Assay type: cell-based
Conditions: not given
Protocol: (§1) Adherent or suspension cancer cell lines were seeded at 2000-5000 cells/well in a 96-well plate, or 1000-2000 cells/well in a 384-well plate. Suspension cells were treated with drug the same day as seeding, while adherent cells were incubated overnight at 37°Cin 5% CO2 prior to drug treatment. All cells were treated for 72 hours, then lysed with ATPlite (Perkin Elmer) and measured on an Envision microplate reader. IC50 values were determined using GraphPad Prism software.
(§2) Over 35 cell lines were tested, and the most sensitive cell lines from various indications were selected and verified by multiple EC50 determinations (Figure 6). […] Antiproliferative activity using PIM-2 shRNA against FLT3-ITD driven leukemia lines has been observed (Adam (2006) Cancer Res 66:3828-35 data not shown).

| Structure (SMILES) | sensitivity in viability assay |
| --- | --- |
| CC(C)(O)[C@H]1CC[C@H](Nc2ccc3ncc(-c4cccc(C(F)(F)F)c4)n3n2)CC1 [SGI-9481] | particularly sensitive |

Biological target: hERG (Homo sapiens, UniProt Q12809)
Sequence (Q12809 whole entry): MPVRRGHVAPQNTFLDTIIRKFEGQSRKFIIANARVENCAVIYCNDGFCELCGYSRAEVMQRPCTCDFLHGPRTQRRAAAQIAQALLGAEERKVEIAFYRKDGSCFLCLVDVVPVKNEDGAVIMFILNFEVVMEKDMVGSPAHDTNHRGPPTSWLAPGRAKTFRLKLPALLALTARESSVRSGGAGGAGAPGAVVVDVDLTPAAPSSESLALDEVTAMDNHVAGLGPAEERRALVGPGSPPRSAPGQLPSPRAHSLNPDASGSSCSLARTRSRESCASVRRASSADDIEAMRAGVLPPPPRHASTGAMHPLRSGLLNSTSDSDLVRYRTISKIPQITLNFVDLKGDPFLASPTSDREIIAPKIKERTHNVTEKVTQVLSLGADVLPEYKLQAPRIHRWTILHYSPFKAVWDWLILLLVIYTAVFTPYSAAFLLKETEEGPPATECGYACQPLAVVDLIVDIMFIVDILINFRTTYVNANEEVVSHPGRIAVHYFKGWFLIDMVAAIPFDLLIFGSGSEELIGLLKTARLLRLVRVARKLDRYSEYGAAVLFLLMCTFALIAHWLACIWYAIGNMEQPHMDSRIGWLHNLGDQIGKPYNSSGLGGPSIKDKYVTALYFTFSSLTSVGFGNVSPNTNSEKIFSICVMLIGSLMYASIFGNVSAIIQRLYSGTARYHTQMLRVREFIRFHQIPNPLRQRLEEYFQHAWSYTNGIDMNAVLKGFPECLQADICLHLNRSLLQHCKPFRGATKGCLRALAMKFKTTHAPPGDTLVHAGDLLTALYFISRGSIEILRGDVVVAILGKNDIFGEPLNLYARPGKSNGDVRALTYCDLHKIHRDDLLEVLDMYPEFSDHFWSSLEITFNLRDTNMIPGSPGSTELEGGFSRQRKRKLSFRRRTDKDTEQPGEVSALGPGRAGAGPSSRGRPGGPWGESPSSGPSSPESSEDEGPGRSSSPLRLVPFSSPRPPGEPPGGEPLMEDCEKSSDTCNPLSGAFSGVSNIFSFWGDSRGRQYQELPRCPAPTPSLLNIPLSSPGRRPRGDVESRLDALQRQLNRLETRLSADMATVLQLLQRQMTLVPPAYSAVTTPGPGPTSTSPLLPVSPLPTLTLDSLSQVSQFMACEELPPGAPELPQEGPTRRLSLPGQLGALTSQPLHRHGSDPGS
Assay: hERG Fast Patch assay (WuXiApptec)
Conditions: not given

| Structure (SMILES) | IC50 [nM] |
| --- | --- |
| CO[C@H]1CC[C@H](Nc2ccn3ncc(-c4cccc(Cl)c4)c3n2)CC1 [8-64, 3-((3-Chlorophenyl)-N-4-methoxy-trans-cyclohexyl)pyrazolo[1,5-a]pyrimidin-5-amine] | > 30000 |
| CC(C)(O)[C@H]1CC[C@H](Nc2ccc3ncc(-c4cccc(OC(F)(F)F)c4)n3n2)CC1 [8-10] | > 30000 |
| O=S1(=O)CCC(CNc2ccc3ncc(-c4cccc(OC(F)(F)F)c4)n3n2)CC1 [8-13, 4-(((3-(3-(Trifluoromethoxy)phenyl)imidazo[1,2-b]pyridazin-6-yl)amino)methyl)tetrahydro-2H-thiopyran 1,1-dioxide] | 10000 |
| C[C@]1(O)CC[C@H](Nc2ccc3ncc(-c4cccc(OC(F)(F)F)c4)n3n2)CC1 [8-9, 1-Methyl-4-((3-(3-(trifluoromethoxy)phenyl)imidazo[1,2-b]pyridazin-6-yl)amino)-trans-cyclohexanol] | 26000 |

Biological target: Pim-1 kinase (Homo sapiens, UniProt P11309)
Sequence (P11309 whole entry): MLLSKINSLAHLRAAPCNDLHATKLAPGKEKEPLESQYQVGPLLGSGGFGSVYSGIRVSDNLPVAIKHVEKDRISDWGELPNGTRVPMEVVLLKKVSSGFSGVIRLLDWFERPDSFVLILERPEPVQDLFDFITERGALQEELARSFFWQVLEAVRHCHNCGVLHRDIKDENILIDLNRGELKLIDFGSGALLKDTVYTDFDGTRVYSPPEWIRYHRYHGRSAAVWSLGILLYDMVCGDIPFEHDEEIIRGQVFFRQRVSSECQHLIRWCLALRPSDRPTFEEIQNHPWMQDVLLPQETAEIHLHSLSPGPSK
Assay: Pim-1 kinase inhibition assay (Promega Kinase-Glo)
Assay type: biochemical
Conditions: not given
Source text: One illustrative manner in which Pim-1 kinase activity can be determined is by quantifying the amount of ATP remaining in solution after an in vitro Pim-1 kinase reaction. The Kinase-Glo Assay Kit (Promega, Inc., Madison, WI) allows this. The amount of ATP remaining in the solution after the kinase reaction serves as a substrate for the luciferase to catalyze luciferin to oxyluciferin plus one photon of light. Thus, the luminescent signal read by the Luminoskan Ascent Instrument (Thermo Electron Corp., Milford, MA) correlates with the amount of ATP present after the kinase reaction and inversely correlates with the amount of kinase acitivity. […] These assays are set up in duplicate 50ul volumes in white, flat bottom 96 well plates. […] This solution is incubated at 30 degrees Celsius at 360rpm for two hours. Following the incubation, 50ul of Kinase-Glo reagent is added to each well, including all positive and negative control wells, and incubated at room temperature for 15 minutes. […] The IC50 values can then be calculated for each inhibitor tested.

| Structure (SMILES) | IC50 [µM] |
| --- | --- |
| OCCN1CCC(CNc2ccc3ncc(-c4cccc(OC(F)(F)F)c4)n3n2)CC1 [8-27, 2-(4-(((3-(3-(Trifluoromethoxy)phenyl)imidazo[1,2-b]pyridazin-6-yl)amino)methyl)piperidin-1-yl)ethanol] | 0.023 |

Same assay, conditions: Table IV; Kinase-Glo, 10uM ATP; read-out: IC50 on Pim1

| Structure (SMILES) | IC50 [µM] |
| --- | --- |
| CO[C@H]1CC[C@H](Nc2ccn3ncc(-c4cccc(Cl)c4)c3n2)CC1 [8-64, 3-((3-Chlorophenyl)-N-4-methoxy-trans-cyclohexyl)pyrazolo[1,5-a]pyrimidin-5-amine] | 0.068 |
| ON=C1CCC(Nc2ccc3ncc(-c4cccc(Cl)c4)n3n2)CC1 (stereo not drawn) [8-92, 4-((3-(3-chlorophenyl)imidazo[1,2-b]pyridazin-6-yl)amino)cyclohexanone oxime] | 0.038 |
| NC1CCCC(Nc2ccc3ncc(-c4cccc(Cl)c4)n3n2)C1 (stereo not drawn) [8-70, N^1-(3-(3-chlorophenyl)imidazo[1,2-b]pyridazin-6-yl)cyclohexane-1,3-diamine] | 0.008 |
| FC(F)(F)c1cccc(-c2cnc3ccc(NC4CCOCC4)nn23)c1 [8-33, N-(Tetrahydro-2H-pyran-4-yl)-3-(3-(trifluoromethyl)phenyl)imidazo[1,2-b]pyridazin-6-amine] | 0.033 |
| Clc1cccc(-c2cnn3ccc(NC4CCOCC4)nc23)c1 [8-65, 3-(3-Chlorophenyl)-N-(tetrahydro-2H-pyran-4-yl)pyrazolo[1,5-a]pyrimidin-5-amine] | 0.186 |
| CC(C)(O)[C@H]1CC[C@H](Nc2ccn3ncc(-c4cccc(C(F)(F)F)c4)c3n2)CC1 [8-56] | 0.017 |
| CC1(O)CCC(Nc2ccn3ncc(-c4cccc(C(F)(F)F)c4)c3n2)CC1 (single isomer, unassigned) [8-55, 1-Methyl-4-((3-(3-(trifluoromethyl)phenyl)pyrazolo[1,5-a]pyrimidin-5-yl)amino)-trans-cyclohexanol] | 0.054 |

Results, then the compound that gave them:

| IC50 [µM] | Structure (SMILES) |
| --- | --- |
| 0.009 | CC(C)(O)[C@H]1CC[C@H](Nc2ccc3ncc(-c4cccc(OC(F)(F)F)c4)n3n2)CC1 [8-10] |
| 0.016 | CN(C)CC(=O)N1CCC(CNc2ccc3ncc(-c4cccc(OC(F)(F)F)c4)n3n2)CC1 [8-45, 2-(dimethylamino)-1-(4-(((3-(3-(trifluoromethoxy)phenyl)imidazo[1,2-b]pyridazin-6-yl)amino)methyl)piperidin-1-yl)ethanone] |
| 0.633 | FC(F)(F)Oc1cccc(-c2cnn3ccc(NC4CCOCC4)nc23)c1 [8-50, N-(Tetrahydro-2H-pyran-4-yl)-3-(3-(trifluoromethoxy)phenyl)pyrazolo[1,5-a]pyrimidin-5-amine] |
| 0.058 | O=S1(=O)CCC(CNc2ccc3ncc(-c4cccc(OC(F)(F)F)c4)n3n2)CC1 [8-13, 4-(((3-(3-(Trifluoromethoxy)phenyl)imidazo[1,2-b]pyridazin-6-yl)amino)methyl)tetrahydro-2H-thiopyran 1,1-dioxide] |
| 0.013 | FC(F)(F)Oc1cccc(-c2cnc3ccc(NCC4CCOCC4)nn23)c1 [8-19, N-((tetrahydro-2H-pyran-4-yl)methyl)-3-(3-(trifluoromethoxy)phenyl)imidazo[1,2-b]pyridazin-6-amine] |
| 0.132 | N[C@H]1CCCN(c2ccn3ncc(-c4cccc(OC(F)(F)F)c4)c3n2)C1 [8-53, (S)-1-(3-(3-(Trifluoromethoxy)phenyl)pyrazolo[1,5-a]pyrimidin-5-yl)piperidin-3-amine] |
| 0.053 | FC(F)(F)Oc1cccc(-c2cnc3ccc(NCC4CCSCC4)nn23)c1 [8-18, N-((tetrahydro-2H-thiopyran-4-yl)methyl)-3-(3-(trifluoromethoxy)phenyl)imidazo[1,2-b]pyridazin-6-amine] |
| 0.012 | N[C@H]1CCCN(c2ccc3ncc(-c4cccc(Cl)c4)n3n2)C1 [8-71, (S)-1-(3-(3-chlorophenyl)imidazo[1,2-b]pyridazin-6-yl)piperidin-3-amine] |
| 0.03 | CC(C)(O)CCNc1ccc2ncc(-c3cccc(OC(F)(F)F)c3)n2n1 [8-3, 2-Methyl-4-((3-(3-(trifluoromethoxy)phenyl)imidazo[1,2-b]pyridazin-6-yl)amino)butan-2-ol] |
| 0.226 | CC(C)(O)CCOc1ccc2ncc(-c3cccc(OC(F)(F)F)c3)n2n1 [8-41, 2-Methyl-4-((3-(3-(Trifluoromethoxy)phenyl)imidazo[1,2-b]pyridazin-6-yl)oxy)butan-2-ol] |
| 0.111 | O=S1(=O)CCC(CNc2ccn3ncc(-c4cccc(C(F)(F)F)c4)c3n2)CC1 [8-59, 4-(((3-(3-(Trifluoromethyl)phenyl)pyrazolo[1,5-a]pyrimidin-5-yl)amino)methyl)tetrahydro-2H-thiopyran 1,1-dioxide] |

Same assay, conditions: Table V; cells that print µM; read-out: IC50 on Pim1

| IC50 [µM] | Structure (SMILES) |
| --- | --- |
| > 30 | OCCOc1ccc2nnc(-c3cccc(C(F)(F)F)c3)n2c1 [8-112, 2-((3-(3-(trifluoromethyl)phenyl)-[1,2,4]triazolo[4,3-a]pyridin-6-yl)oxy)ethanol] |
| > 30 | O=S1(=O)CCC(CNc2ccc3nnc(-c4cccc(C(F)(F)F)c4)n3c2)CC1 [8-111] |

System: MV-4-11
Assay: In vitro viability assay, MV-4-11
Assay type: cell-based
Conditions: not given
Protocol: as §1, §2

| Structure (SMILES) | sensitivity in viability assay |
| --- | --- |
| CC(C)(O)[C@H]1CC[C@H](Nc2ccc3ncc(-c4cccc(C(F)(F)F)c4)n3n2)CC1 [SGI-9481] | particularly sensitive |
